From patent US20030013660A1, “Dioxolane analogs for improved inter-cellular delivery” (Shire BioChem Inc., priority 2000, published 2003)
Where two headings read alike, the source gives them in different places.

Assays:
Assay in all cases: 3H-TdR (3H-thymidine) incorporation assay at 72 hr
MCF-7 = type: cell-based, Human
SF-268 = type: cell-based, Human
H-460 = type: cell-based, Human
CEM/dCK- = type: cell-based; conditions: for Factor* (Resistance Factor = Ratio of dCK- on Wild-type CCRF-CEM): ratio of IC50 CEM/dCK- to CCRF-CEM, 24 h
Procedure: (§1) Table of IC50 Values (μM) for Controls
(§2) Exposition of 24 hr to drug, wash, incubated for another 48 hr (total of 72 hr assay)
(§3) (3H-Thymidine Incorporation Assay)

CCRF-CEM = type: cell-based
Procedure: as §1, §2, §3

[1] = Homo sapiens, MCF7, read-out: IC50 MCF-7 24 h, 24 h drug exposure, wash, another 48 hr, 3H-TdR incorporation at 72 hr
[2] = Homo sapiens, SF-268, read-out: IC50 SF-268 24 h, 24 h drug exposure, wash, another 48 hr, 3H-TdR incorporation at 72 hr
[3] = Homo sapiens, NCI-H460, read-out: IC50 H-460 24 h, 24 h drug exposure, wash, another 48 hr, 3H-TdR incorporation at 72 hr
[4] = Homo sapiens, CCRF-CEM, read-out: IC50 CEM/dCK- 24 h, 24 h drug exposure, wash, another 48 hr, deoxycytidine kinase-deficient CCRF-CEM
[5] = Homo sapiens, CCRF-CEM, read-out: IC50 CCRF-CEM 24 h, 24 h drug exposure, wash, another 48 hr, 3H-TdR incorporation at 72 hr
[6] = Homo sapiens, MCF7, read-out: IC50 MCF-7 24 h
[7] = Homo sapiens, SF-268, read-out: IC50 SF-268 24 h
[8] = Homo sapiens, NCI-H460, read-out: IC50 H-460 24 h
[9] = Homo sapiens, CCRF-CEM, read-out: IC50 CEM/dCK- 24 h
[10] = Homo sapiens, CCRF-CEM, read-out: IC50 CCRF-CEM 24 h

| IC50 (MCF-7; [1]) [nM] | IC50 (SF-268; [2]) [nM] | IC50 (H-460; [3]) [nM] | IC50 (CEM/dCK-; [4]) [nM] | IC50 (CCRF-CEM; [5]) [nM] | Structure (SMILES) | Factor* (Resistance Factor = Ratio of dCK- on Wild-type CCRF-CEM) (CEM/dCK-) | IC50 (MCF-7; [6]) [nM] | IC50 (SF-268; [7]) [nM] | IC50 (H-460; [8]) [nM] | IC50 (CEM/dCK-; [9]) [nM] | IC50 (CCRF-CEM; [10]) [nM] | IC50 (MCF-7; read-out: IC50 MCF-7 24 h, 24 h drug exposure, wash, another 48 hr, 3H-TdR incorporation at 72 hr, HYDROCHLORIDE) [nM] | IC50 (SF-268; read-out: IC50 SF-268 24 h, 24 h drug exposure, wash, another 48 hr, 3H-TdR incorporation at 72 hr, HYDROCHLORIDE) [nM] | IC50 (H-460; read-out: IC50 H-460 24 h, 24 h drug exposure, wash, another 48 hr, 3H-TdR incorporation at 72 hr, HYDROCHLORIDE) [nM] | IC50 (CEM/dCK-; read-out: IC50 CEM/dCK- 24 h, 24 h drug exposure, wash, another 48 hr, deoxycytidine kinase-deficient CCRF-CEM, HYDROCHLORIDE) [nM] | IC50 (CCRF-CEM; read-out: IC50 CCRF-CEM 24 h, 24 h drug exposure, wash, another 48 hr, 3H-TdR incorporation at 72 hr, HYDROCHLORIDE) [nM] |
| --- | --- | --- | --- | --- | --- | --- | --- | --- | --- | --- | --- | --- | --- | --- | --- | --- |
| 410 | 2100 | 330 | 16000 | 360 | O=C(Nc1ccn([C@@H]2CO[C@H](COC(=O)C34CC5CC(CC(C5)C3)C4)O2)c(=O)n1)OCc1ccccc1 [Compound 101, ADAMANTANE-1-CARBOXYLIC ACID 4-(4- BENZYLOXYCARBONYLAMINO- 2-OXO-2H-PYRIMIDIN-1- YL)-[1,3]DIOXOLAN-2- YLMETHYL ESTER] | 44 | – | – | – | – | – | – | – | – | – | – |
| 1700 | 1000 | 190 | 11000 | 410 | O=C(Nc1ccn([C@@H]2CO[C@H](COC(=O)C34CC5CC(CC(C5)C3)C4)O2)c(=O)n1)C12CC3CC(CC(C3)C1)C2 [Compound 102, ADAMANTANE-1-CARBOXYLIC ACID 4-{4-[(ADAMANTANE- 1-CARBONYL)-AMINO]-2- OXO-2H-PYRIMIDIN-1-YL}- [1,3]DIOXOLAN-2- YLMETHYL ESTER] | 27 | – | – | – | – | – | – | – | – | – | – |
| – | – | – | – | – | O=C(Nc1ccn([C@@H]2CO[C@H](COC(=O)Oc3ccc(Cl)cc3)O2)c(=O)n1)Oc1ccc(Cl)cc1 [Compound 103] | 4,545 | 18 | 63 | 52 | 50000 | 11 | – | – | – | – | – |
| – | – | – | – | – | O=C(Nc1ccn([C@@H]2CO[C@H](CO)O2)c(=O)n1)Oc1ccc(Cl)cc1.O=C(O)C(F)(F)F [Compound 104, [1-(2-HYDROXYMETHYL- [1,3]DIOXOLAN-4-YL)-2- OXO-1,2-DIHYDRO- […]-4-YL]- CARBAMIC ACID 4-CHLORO- PHENYL ESTER TRIFLUOROACETATE SALT] | >476 | 470 | 470 | 270 | > 100000 | 210 | – | – | – | – | – |
| – | – | – | – | – | CC(C(=O)OC[C@H]1OC[C@@H](n2ccc(N)nc2=O)O1)c1ccccc1.Cl (some centres unmarked) [Compound 106, HYDROCHLORIDE] | – | – | – | – | – | – | 37 | 95 | 14 | 46000 | 10 |
| 27000 | 3800 | 1800 | > 100000 | 3400 | O=C(NCc1ccccc1)Nc1ccn([C@@H]2CO[C@H](CO)O2)c(=O)n1 [Compound 108, 1-BENZYL-3-[1-(2- HYDROXYMETHYL- [1,3]DIOXOLAN-4-YL)-2- OXO-1,2-DIHYDRO- PYRIMIDIN-4-YL]-UREA] | >29 | – | – | – | – | – | – | – | – | – | – |
| 31000 | 4800 | 2600 | > 100000 | 1000 | O=C(NCc1ccccc1)Nc1ccn([C@@H]2CO[C@H](COC(=O)NCc3ccccc3)O2)c(=O)n1 [Compound 109, BENZYL-CARBAMIC ACID 4- [4-(3-BENZYL-UREIDO)-2- OXO-2#H!-PYRIMIDIN-1- YL]-[1,3]DIOXOLAN-2- YLMETHYL ESTER] | >100 | – | – | – | – | – | – | – | – | – | – |

| Structure (SMILES) | IC50 (MCF-7; [1]) [nM] | IC50 (SF-268; [2]) [nM] | IC50 (H-460; [3]) [nM] | IC50 (CEM/dCK-; [4]) [nM] | IC50 (CCRF-CEM; [5]) [nM] | Factor* (Resistance Factor = Ratio of dCK- on Wild-type CCRF-CEM) (CEM/dCK-) | IC50 (MCF-7; [6]) [nM] | IC50 (SF-268; [7]) [nM] | IC50 (H-460; [8]) [nM] | IC50 (CEM/dCK-; [9]) [nM] | IC50 (CCRF-CEM; [10]) [nM] | IC50 (MCF-7; read-out: IC50 MCF-7 24 h, 24 h drug exposure, wash, another 48 hr, 3H-TdR incorporation at 72 hr, HYDROCHLORIDE) [nM] | IC50 (SF-268; read-out: IC50 SF-268 24 h, 24 h drug exposure, wash, another 48 hr, 3H-TdR incorporation at 72 hr, HYDROCHLORIDE) [nM] | IC50 (H-460; read-out: IC50 H-460 24 h, 24 h drug exposure, wash, another 48 hr, 3H-TdR incorporation at 72 hr, HYDROCHLORIDE) [nM] | IC50 (CEM/dCK-; read-out: IC50 CEM/dCK- 24 h, 24 h drug exposure, wash, another 48 hr, deoxycytidine kinase-deficient CCRF-CEM, HYDROCHLORIDE) [nM] | IC50 (CCRF-CEM; read-out: IC50 CCRF-CEM 24 h, 24 h drug exposure, wash, another 48 hr, 3H-TdR incorporation at 72 hr, HYDROCHLORIDE) [nM] |
| --- | --- | --- | --- | --- | --- | --- | --- | --- | --- | --- | --- | --- | --- | --- | --- | --- |
| Nc1ccn([C@@H]2CO[C@H](COC(=O)Oc3ccc(Cl)cc3)O2)c(=O)n1.O=C(O)C(F)(F)F [Compound 105, CARBONIC ACID 4-(4- AMINO-2-OXO-2H- PYRIMIDIN-1-YL)- [1,3]DIOXOLAN-2- YLMETHYL ESTER 4- CHLORO-PHENYL ESTER TRIFLUOROACETATE SALT] | 68 | 71 | 80 | 79000 | 33 | 2393 | – | – | – | – | – | – | – | – | – | – |
| CC(C)(C)OC(=O)N(CCCCC(=O)OC[C@H]1OC[C@@H](n2ccc(N)nc2=O)O1)Cc1ccccc1 [Compound 111, 5-(BENZYL-TERT- BUTOXYCARBONYL-AMINO)- PENTANOIC ACID 4-(4- AMINO-2-OXO-2H- PYRIMIDIN-1-YL)- [1,3]DIOXOLAN-2- YLMETHYL ESTER] | 0.26 | 2.1 | 0.13 | 2600 | 0.2 | 13000 | – | – | – | – | – | – | – | – | – | – |
